The text below walks through data of patent US11247965B2 (VenatoRx Pharmaceuticals, Inc., priority 2017, dated 2022).

As usually defined, the CC50 is the concentration giving 50% cytotoxicity. One may read the EC50 as the concentration needed to bring the measured effect to its halfway point.

Structures are written as SMILES. Like-named read-outs stand apart in the source and are kept apart here.

Data set [1] is described as follows: In vitro cytotoxicity, MTT cell viability assay in HepG2 cells. The following applies: human. Type of data set: cell-based. The method, then:
To evaluate antiviral selectivity, the cytotoxic activity of each compound was determined using a standard cell viability assay performed on the parental HepG2 cell line. Cell viability was determined by measuring the conversion of 3-(4,5-dimethylthiazol-2-yl)-2,5-diphenyltetrazolium bromide (MTT) to the insoluble formazan salt crystal that occurs in live cells. Briefly, HepG2 cells were seeded in 96-well plates at a density of 20,000 cells per well in EMEM+10% FBS (complete growth medium) and allowed to adhere overnight in a 37° C., 5% CO2 humidified incubator. The next day, test agents were prepared by performing 8 half-log10 serial dilutions in 100% DMSO at 200× the final desired concentration in the assay. Compounds were tested over a range of concentrations from 30 μM to 1.0 nM in the assay. HepG2 cells were incubated in the presence of various concentrations of CAMs for 7 days in a 37° C., 5% CO2 humidified incubator. At the completion of the 7-day incubation period, MTT reagent was added to each well and the mixture was incubated for an additional 3-4 hours. At the completion of the incubation period, all wells were aspirated to remove the culture medium. The formazan crystals were solubilized from the cell monolayers with 100% DMSO. Plates were briefly mixed on an orbital shaker and absorbance was measured at 492 nm using a Perkin-Elmer EnVision multi-label plate reader. All absorbance values were converted to a percentage of the signal obtained from the vehicle treated controls. Absorbance values at 492 nm are directly proportional to the number of viable cells present in the sample. A CC50 value (cytotoxic concentration that results in loss of 50% cell viability) was calculated from the dose-response curve by 4-parameter, non-linear regression analysis using the GraphPad Prism software. The positive control compound, staurosporine, reduced the viability of HepG2 cells in a dose-dependent manner (CC50=100 nM).
For orientation: Formazan colour is commonly taken as a measure of viable cells.

Data set [2] concerns HBV replication in HepAD38 cells. The data set can be described thus: Anti-HBV activity in HepAD38 cells, extracellular HBV DNA by QPCR. In kind it is cell-based, HBV (genotype D, serotype ayw). The following applies: Hepatitis B virus, HePAD38, 168 h. The method, then:
The anti-HBV activity of the Capsid Assembly Modulators (CAMs) was evaluated in a cell based assay utilizing the human hepatoma cell line HepAD38 (Ladner, S K., et al., 1998). HepAD38 cells were derived from the parental line, HepG2, that were stably transfected with a construct containing an HBV genome (genotype D, serotype ayw) under the control of a tetracycline repressible CMV promoter. Upon removal of tetracycline, viral pre-genomic RNA (pgRNA) and mRNAs are expressed and infectious viral particles are assembled and secreted into the culture medium providing a reliable, robust system to measure multiple steps of the HBV life cycle. Disruption of capsid formation results in reduced levels of DNA-containing virus particles that are released into the culture supernatant. To quantify the effect of CAMs on HBV replication, we developed a sensitive QPCR-based assay that measures extracellular HBV DNA levels upon treatment of HepAD38 cells with various concentrations of test compounds.
HepAD38 cells were maintained in DMEM/F12 medium containing 10% FBS, 400 μg/mL G418 and 0.3 μg/mL tetracycline (tet+medium) to maintain repression of HBV replication. To evaluate each compound, HepAD38 cells were seeded into 24-well collagen coated culture plates (Corning BioCoat) at a density of 200,000 cells per well in 1 mL of tet+medium and allowed to adhere overnight at 37° C., 5% CO2 in a humidified incubator. The following day, test articles were subjected to half-logo serial dilutions, ranging from 30 μM to 10 nM, in 100% DMSO at 200× the desired final assay concentration. Tetracycline was removed from the cells by aspirating the tet+medium and washing the cells once with growth medium lacking tetracycline (tet-). Various concentrations of each compound were added to the appropriate wells (1:200 dilution) and the plates were returned to the incubator. Following 7 days of incubation, culture supernatants were harvested and HBV DNA levels were evaluated by QPCR and compared to the vehicle treated control wells (i.e. DMSO alone).
To quantify HBV DNA levels, cell culture supernatants were diluted 1:10 in sterile, nuclease-free water (Gibco). The diluted supernatants were subsequently added to a PCR master mix containing 1× Roche Light Cycler Master Mix, 0.5 μM forward primer, 0.5 μM reverse primer (Fwd:
0.2 μM Roche Universal Probe Library Probe 25. The volume was brought to 20 μL with nuclease-free water and amplification of the HBV target sequence was performed using a Roche LightCycler 480 QPCR instrument. PCR extended out to 45 cycles with each cycle consisting of a denaturation step at 95° C. for 10 sec., followed by an annealing step at 60° C. for 10 sec. and a brief extension step at 72° C. for 1 sec.
Extracellular HBV DNA levels, expressed in copies/mL, were determined by comparison to a standard curve (10^2-10^9 copies/mL) using the Roche LightCycler analysis software. These values were subsequently converted to percent inhibition of HBV replication by dividing the HBV DNA levels in the experimental samples with those obtained from the vehicle control (˜1-2×10^5 copies/mL). Potency, expressed as an EC50 (the effective concentration required to inhibit […] of HBV replication), was calculated from the dose-response curve using a 4-parameter non-linear regression analysis (GraphPad Prism). The nucleoside analog inhibitor entecavir was used as a positive control to validate each assay run. The EC50 value of entecavir in the HepAD38 assay was 0.5 nM, as previously reported in the literature.

Where [3] appears, read: read-out: Anti-HBV EC50, HepAD38 cells, extracellular HBV DNA by QPCR, 7 days of incubation.

For `Cc1cc(NC(=O)c2ccc(F)c(C(F)(F)C(=O)NC34CCC(NC(=O)OC(C)(C)C)(CC3)C4)c2)ccc1F` [Example 252, tert-butyl (4-(2,2-difluoro-2-(2-fluoro-5-((4-fluoro-3-methylphenyl)carbamoyl)phenyl)acetamido)bicyclo[2.2.1]heptan-1-yl)carbamate], the 50% cytotoxic concentration (CC50) at 7 days in data set [1] (Cytotoxicity CC50) is below 5 µM. In data set [2] (setting [3]), the concentration for a half-maximal effect (EC50) was in the range of 5 to 30 µM.

`Cc1cc(NC(=O)c2cc(C(F)(F)C(=O)N3[C@@H]4CC[C@H]3C[C@H](O)C4)c(F)cc2F)ccc1F` [Example 218, 5-(1,1-difluoro-2-((1R,3s,5S)-3-hydroxy-8-azabicyclo[3.2.1]octan-8-yl)-2-oxoethyl)-2,4-difluoro-N-(4-fluoro-3-methylphenyl)benzamide] had a CC50 at 7 days in data set [1] (Cytotoxicity CC50) above 30 µM. Further, the EC50 in data set [2] (setting [3]) was below 5 µM.

The molecule `Cc1cc(NC(=O)c2ccc(F)c(C(F)(F)C(=O)N3CCC(O)(CO)CC3)c2)cc(F)n1` [Example 222, 3-(1,1-difluoro-2-(4-hydroxy-4-(hydroxymethyl)piperidin-1-yl)-2-oxoethyl)-4-fluoro-N-(2-fluoro-6-methylpyridin-4-yl)benzamide] displayed a CC50 at 7 days in data set [1] (Cytotoxicity CC50) above 30 µM. Also, the EC50 in data set [2] (setting [3]) was in the range of 5 to 30 µM.

Take `O=C(Nc1ccc(F)c(Br)c1)c1ccc(F)c(C(F)(F)C(=O)N2CCC(O)(CO)CC2)c1` [Example 190, N-(3-bromo-4-fluorophenyl)-3-(1,1-difluoro-2-(4-hydroxy-4-(hydroxymethyl)piperidin-1-yl)-2-oxoethyl)-4-fluorobenzamide]: the CC50 at 7 days in data set [1] (Cytotoxicity CC50) fell in the range of 5 to 30 µM. Moreover, in data set [2] (setting [3]), the EC50 is below 5 µM.

`Cc1cc(NC(=O)c2ccc(F)c(C(F)(F)C(=O)N3Cc4sc(N)nc4C(C)(C)C3)c2)ccc1F` [Example 339, 3-(2-(2-amino-7,7-dimethyl-6,7-dihydrothiazolo[5,4-c]pyridin-5(4H)-yl)-1,1-difluoro-2-oxoethyl)-4-fluoro-N-(4-fluoro-3-methylphenyl)benzamide] registered a cytotoxic concentration (CC50) at 7 days in data set [1] (Cytotoxicity CC50) of 5 to 30 µM. For the same molecule, the concentration giving a half-maximal response (EC50) in data set [2] (setting [3]) is below 5 µM.

In the case of `Cc1cc(NC(=O)c2ccc(F)c(C(F)(F)C(=O)N3CCC(O)CC3)n2)ccc1F` [Example 300, 6-(1,1-difluoro-2-(4-hydroxypiperidin-1-yl)-2-oxoethyl)-5-fluoro-N-(4-fluoro-3-methylphenyl)picolinamide], the CC50 at 7 days in data set [1] (Cytotoxicity CC50) was 5 to 30 µM. Moreover, the concentration giving a half-maximal response (EC50) in data set [2] (setting [3]) is below 5 µM.

As for `Cc1cc(NC(=O)c2ccc(F)c(C(F)(F)C(=O)NCB3O[C@@H]4C[C@@H]5C[C@@H](C5(C)C)[C@]4(C)O3)c2)ccc1F` [Example 149, 3-(1,1-difluoro-2-oxo-2-((((3aS,4S,6S,7aR)-3a,5,5-trimethylhexahydro-4,6-methanobenzo[d][1,3,2]dioxaborol-2-yl)methyl)amino)ethyl)-4-fluoro-N-(4-fluoro-3-methylphenyl)benzamide], the CC50 at 7 days in data set [1] (Cytotoxicity CC50) fell in the range of 5 to 30 µM. Besides, the EC50 in data set [2] (setting [3]) was below 5 µM.

The molecule `Cc1cc(NC(=O)c2ccc(F)c(C(F)(F)C(=O)N3C4CC[C@@H]3C[C@@H](C(N)=O)C4)c2)ccc1F` [Example 257, (1R,3s,5S)-8-(2,2-difluoro-2-(2-fluoro-5-((4-fluoro-3-methylphenyl)carbamoyl)phenyl)acetyl)-8-azabicyclo[3.2.1]octane-3-carboxamide] yielded a CC50 at 7 days in data set [1] (Cytotoxicity CC50) of 5 to 30 µM. In data set [2] (setting [3]), the EC50 was below 5 µM.

`CCN(CCO)C(=O)C(F)(F)c1cc(C(=O)Nc2ccc(F)c(F)c2)ccc1F` [Example 55, N-(3,4-difluorophenyl)-3-(2-(ethyl(2-hydroxyethyl)amino)-1,1-difluoro-2-oxoethyl)-4-fluorobenzamide] gave a CC50 at 7 days in data set [1] (Cytotoxicity CC50) above 30 µM. The EC50 in data set [2] (setting [3]) is 5 to 30 µM.

On to `Cc1cc(NC(=O)c2cc(C(F)(F)C(=O)N3CCC(O)CC3)c(Cl)cc2C)ccc1F` [Example 67, 4-chloro-5-(1,1-difluoro-2-(4-hydroxypiperidin-1-yl)-2-oxoethyl)-N-(4-fluoro-3-methylphenyl)-2-methylbenzamide], for which the CC50 at 7 days in data set [1] (Cytotoxicity CC50) is above 30 µM. For the same molecule, the EC50 in data set [2] (setting [3]) was below 5 µM.

With `Cc1cc(NC(=O)c2ccc(F)c(C(F)(F)C(=O)N3[C@@H]4COC[C@H]3CN(S(C)(=O)=O)C4)c2)ccc1F` [Example 211, 3-(1,1-difluoro-2-((1R,5S)-7-(methylsulfonyl)-3-oxa-7,9-diazabicyclo[3.3.1]nonan-9-yl)-2-oxoethyl)-4-fluoro-N-(4-fluoro-3-methylphenyl)benzamide], in data set [1] (Cytotoxicity CC50), the CC50 at 7 days was above 30 µM. Also, the EC50 in data set [2] (setting [3]) was below 5 µM.

The molecule `Cc1cc(NC(=O)c2ccc(Cl)c(C(F)(F)C(=O)N3CC[C@@H](O)[C@@H](O)C3)c2)ccc1F` [Example 57, 4-chloro-3-(2-((3S,4R)-3,4-dihydroxypiperidin-1-yl)-1,1-difluoro-2-oxoethyl)-N-(4-fluoro-3-methylphenyl)benzamide] displayed a cytotoxic concentration (CC50) at 7 days in data set [1] (Cytotoxicity CC50) above 30 µM. For the same molecule, the 50% effective concentration (EC50) in data set [2] (setting [3]) is below 5 µM.

`CN[C@@H]1C[C@H]2O[C@@](C)([C@@H]1OC)n1c3ccccc3c3c4c(c5c6ccccc6n2c5c31)C(=O)NC4` [staurosporine, reference compound]: the half-maximal cytotoxic concentration (CC50) at 7 days in data set [1] (positive control, HepG2 cells, 7 days incubation, MTT, read-out: CC50, viability of HepG2 cells) was 0.1 µM.

Regarding `Cc1cc(NC(=O)c2ccc(F)c(C(F)(F)C(=O)N3CCn4c(cnc4C(F)(F)F)C3)c2)ccc1F` [Example 312, 3-(1,1-difluoro-2-oxo-2-(3-(trifluoromethyl)-5,6-dihydroimidazo[1,5-a]pyrazin-7(8H)-yl)ethyl)-4-fluoro-N-(4-fluoro-3-methylphenyl)benzamide], the EC50 in data set [2] (setting [3]) is below 5 µM.

As to `Cn1cc(C(=O)Nc2ccc(F)c(Cl)c2)cc1C(F)(F)C(=O)NC(C)(C)C` [Example 139, 5-(2-(tert-butylamino)-1,1-difluoro-2-oxoethyl)-N-(3-chloro-4-fluorophenyl)-1-methyl-1H-pyrrole-3-carboxamide], in data set [2] (setting [3]), the half-maximal effective concentration (EC50) was below 5 µM.

Regarding `Cc1cc(NC(=O)c2ccc(F)c(C(F)(F)C(=O)N3[C@@H]4CC[C@H]3c3sc(N)nc3C4)c2)ccc1F` [Example 313, 3-(2-((5R,8S)-2-amino-5,6,7,8-tetrahydro-4H-5,8-epiminocyclohepta[d]thiazol-9-yl)-1,1-difluoro-2-oxoethyl)-4-fluoro-N-(4-fluoro-3-methylphenyl)benzamide], in data set [2] (setting [3]), the EC50 was below 5 µM.

Turning to `C=C1[C@H](CO)[C@@H](O)C[C@@H]1n1cnc2c(=O)[nH]c(N)nc21` [entecavir, reference compound], in data set [2] (positive control, HepAD38 cells, 7 days incubation, extracellular HBV DNA, read-out: EC50 in the HepAD38 assay), the EC50 worked out at 0.0005 µM.
